Here are results for one molecule from article PMC8692993, “PPARα and PPARγ activation is associated with pleural mesothelioma invasion but therapeutic inhibition is ineffective” (iScience, 2021).

For data set [1], the target named is T1, PPARα (Homo sapiens, UniProt Q07869).
T1 sequence (Q07869 239-466 limits assumed): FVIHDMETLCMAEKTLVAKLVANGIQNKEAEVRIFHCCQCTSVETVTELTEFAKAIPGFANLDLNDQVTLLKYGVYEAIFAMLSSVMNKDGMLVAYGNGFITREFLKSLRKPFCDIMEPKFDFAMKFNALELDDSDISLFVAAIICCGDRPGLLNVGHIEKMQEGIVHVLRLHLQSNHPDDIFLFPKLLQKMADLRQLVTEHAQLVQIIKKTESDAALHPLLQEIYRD
In words: LanthaScreen TR-FRET binding assay, PPARα. The following applies: 2 h incubation, mean of 3 replicates ± SEM. On the procedure:
(§1) The LanthaScreen™ TR-FRET binding assay was performed following the manufacturer's guidelines (PV4894, Invitrogen) as follows, 20 mM stock solution of the ligand or control in DMSO were serially diluted using 100% DMSO to produce a range of concentrations from 100 μM to 1 pM. The test compound solutions were mixed with the reaction buffer in a 1 (ligand) in 10 (reaction buffer) dilution for a final 2X ligand concentration. This was mixed with the reaction components (glutathione S-transferase (GST)-PPPARγLBD (0.5 nM)/, terbium (Tb)-labelled anti-GST antibody (5 nM) and Fluormone pan-PPAR green (5 nM for PPARγ; 20 nM for PPARα) at room temperature in a ratio of 8 μLl 2X ligand solution: 4 μLl of 4XFluormone: and 4 μLl 4X GST-PPPARγLBD/terbium (Tb)-labelled anti-GST antibody to produce a final reaction mixture volume of 16 μL. The concentration of DMSO in the final reaction mixture was 5%. The reaction mixture was kept at room temperature for 2 h prior to recording the TR-FRET emission spectra using a CLARIOstar Plus microplate reader (BMG Labtech). […] Results are expressed as the ratio of fluorescence intensity at 520 nm (Fluormone emission) and 490 nm (Tb emission). […] For each compound three serial dilutions were prepared and measured separately. The IC50 and SEM values were determined using a sigmoidal dose-response equation with varying slope using GraphPad Prism.

The target of data set [2] is T2, PPARγ (Homo sapiens, UniProt P37231).
T2 sequence (P37231 238-503 limits assumed): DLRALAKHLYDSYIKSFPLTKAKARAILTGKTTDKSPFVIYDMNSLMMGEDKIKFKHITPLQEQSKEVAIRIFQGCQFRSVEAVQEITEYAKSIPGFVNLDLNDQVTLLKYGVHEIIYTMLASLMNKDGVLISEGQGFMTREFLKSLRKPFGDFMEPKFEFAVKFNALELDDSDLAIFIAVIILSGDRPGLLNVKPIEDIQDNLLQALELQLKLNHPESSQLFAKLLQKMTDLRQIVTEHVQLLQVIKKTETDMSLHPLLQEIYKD
In words: LanthaScreen TR-FRET binding assay, PPARγ. The following applies: 2 h incubation, mean of 3 replicates ± SEM. On the procedure:
as §1
(In general: Time-resolved FRET reads energy transfer from a long-lived donor to a nearby acceptor.)

Data set [3] is described as follows: Protein binding by rapid equilibrium dialysis, reporter assay media. Conditions: DMEM/F-12 with 5% dextran-coated charcoal-stripped FCS, mean ± SD, n=3. It counts as in vitro ADME. On the procedure: Protein binding was determined via rapid equilibrium dialysis (RED) with incorporation of a pre-saturation step ([Charman et al., 2020]). The pre-incubation process involved RED system being exposed to fresh aqueous solutions of GW6471 (400 nM) for three periods (including one overnight). For the protein binding determination, GW6471 was spiked into the diluted mouse plasma (10% (v/v); in PBS) or DMEM/F-12 media containing 5% dextran-coated charcoal-stripped FCS (at 2000 nM) and dialysed against protein-free PBS (for plasma) or base media (DMEM/F-12) containing GW6471 at 40 nM for 24 h at 37°C under ambient atmosphere on a plate shaker. Concentrations of GW6471 in dialysate and donor samples collected at the end of the dialysis period were determined via LC–MS.
Compound binding was assessed on the basis of the measured concentrations in dialysate and donor samples at the end of the dialysis period.
Based on the post-dialysis measured concentrations in donor (Ctotal_post_dialysis) and dialysate (Cunbound) for each RED unit, the unbound fraction of compound in assay matrix (fu_diluted) was calculated according to Equation 1 below:(Equation 1) fu=Cunbound/Ctotal_post−dialysis
For media, the value for fu calculated according to Equation 1 above was used without further correction. […]
For orientation: In equilibrium dialysis free small molecules cross a membrane that holds back macromolecules.

In data set [4] the test system is HAP1, HAP1 PPARA KO, and HAP1 PPARG KO cell lines. In words: MTT cell metabolic activity assay, HAP1 lines. It counts as cell-based, human. As for the experimental part: Cells were harvested and seeded in 96-flat well plates (Corning) at a density of 5 x 10^4 cells/mL overnight. Media was removed and 100 μL media with GW6471 or GW9662 at indicated concentrations was added to each well. Cell viability and toxicity were measured at 48 h. Cells were incubated with 50 μL of a 2 mg/mL solution of (3-(4,5-dimethyl-thiazole-2-yl)-2,5-[…] tetrazolium (MTT, Sigma-Aldrich) in PBS for 4 h and then exposed to 100 μL dimethyl sulfoxide (DMSO; Sigma-Aldrich). Cell viability was measured by absorption at 570 nm in a microplate spectrophotometer (Spectromax 250 plate reader). Results are shown as relative cell viability.

Data set [5] shares this test system. The experiment in a line: Scratch wound migration assay, HAP1 lines. Conditions: 1 and 10 μM. It counts as cell-based, human. On the procedure: Cells were harvested and seeded in Incucyte®ImageLock 96-well plates (Essen BioScience) at a density of 10 x 10^4 cells/mL overnight. A scratch wound was performed on the confluent cells with the 96-pin IncuCyte WoundMaker Tool (Essen BioScience). For migration assays, cells were washed with PBS once before adding 100 μL media with GW6471 at indicated concentrations. For matrigel invasion assays, cells were washed with PBS once before adding 50 μL of matrigel basement membrane matrix (FAL356231; Corning, NY, USA) at 8 mg/mL; lastly 100 μL media with GW6471 at indicated concentrations were added on top of the matrigel. Wounded cells were incubated in the IncuCyte ZOOM® at 37°C with 5% CO2. Data were analysed using the Incucyte® Scratch Wound Cell Migration Software Module and calculating the Relative Wound Density (%) (RWD) for both migration and invasion assays.

Structures are written as SMILES.

For `CCC(=O)NC[C@H](Cc1ccc(OCCc2nc(-c3ccccc3)oc2C)cc1)N/C(C)=C\C(=O)c1ccc(C(F)(F)F)cc1` [GW6471], the IC50 (commonly the concentration that inhibits the measured activity by half) in data set [1] worked out at 95.3 ± 42 nM; in data set [2], 39.4 ± 18.2 nM. Besides, in data set [3], the “Fraction unbound (fu)” value is listed as 0.0037 ± 0.0006. In data set [4] (HAP1, HAP1 PPARA KO, HAP1 PPARG KO, 0.391-100 μM), the “Cellular proliferation (MTT)” value is “inhibited cellular proliferation at micromolar concentrations”. Besides, in data set [4] (HAP1 versus HAP1 PPARA KO and HAP1 PPARG KO), the “Growth inhibition compared between parental and PPARA/PPARG KO cells” value is listed as “identical”. The “Effect on migration compared between PPARA KO, PPARG KO and wild-type cells” value in data set [5] is recorded as “not significantly different”. Besides, in data set [5] (HAP1 lines), the In vitro migration result is recorded as “concentration-dependent effect on in vitro migration”.
